Laboratory results published in US5646128A, “Methods for treating adenosine kinase related conditions” (priority 1994, dated 1997).
Entries after “also recorded” stand apart in the source; their conditions may differ.

Experiments:
[1] = tested on: adenosine release, rat cardiomyocytes; settings: cited from earlier work
[2] = tested on: adenosine release, isolated guinea pig hearts; settings: cited from earlier work
[3] = tested on: E. coli LPS endotoxemia; assay: Survival in endotoxemia (E. coli LPS) in mice; format: in vivo, Balb/C mice; settings: 200 mg/kg i.p. 30 minutes prior to LPS and drug
Description: An adenosine kinase inhibitor (GP-1-515) was used to increase endogenous adenosine production in vivo.

[4] = tested on: TNF-α; assay: Inhibition of TNF-alpha production in endotoxemic mice (ELISA); format: in vivo, Balb/C mice; settings: 200 mg/kg i.p. 30 minutes prior to LPS and GP-1-515
Method: In these experiments, plasma TNF-α levels were measured in GP-1-515and placebo-treated mice (8 animals per group). Balb/C mice received an intravenous injection of E. coli LPS (900 ug/animal) (Sigma Chemical Co.) followed immediately by a second injection with 0.1 mg/kg of GP-1-515 or vehicle. Some animals were pretreated with an intraperitoneal injection of the adenosine receptor antagonist 8SPT. One hour later, blood was obtained from ether anesthetized animals by intracardiac puncture using a heparinized syringe. Blood samples were chilled on ice, centrifuged at 5000 rpm in a microcentrifuge for 5 minutes, and the plasma removed. TNF-α levels in the plasma were assayed by ELISA according to the instructions provided by the manufacturer (Endogen, Cambridge, Mass.).

[5] = tested on: cardiac adenosine kinase; assay: Inhibition of cardiac adenosine kinase in vivo; settings: conscious rats, i.v.
[6] = Acute i.v. hemodynamics in the rat; format: in vivo, Sprague Dawley rats
Method: The ability of the adenosine kinase inhibitor GP-1-238 to show effects on blood pressure, heart rate or body temperature was compared in anesthetized and conscious rats. Sprague Dawley rats were anesthetized with pentobarbital and catheterized in the jugular vein and carotid artery. GP-1-238 (0.1-5 mg/kg/min) was infused intravenously in stepwise increments (0.2 mL/min×5 minutes). The experiments in conscious rats were conducted in the same manner after rats had been catheterized and allowed to recover for 2 days following surgery.

[7] = tested on: fMLP-stimulated human neutrophils on human umbilical vein endothelial cells; assay: Inhibition of neutrophil adherence to endothelial cells; format: cell-based; settings: for inhibition of neutrophil adhesion to endothelial cells: fMLP-stimulated neutrophils, 2 hours, 37° C.; for effect of adenosine deaminase co-treatment on inhibition of neutrophil adhesion: with adenosine deaminase 0.125 U/mL
Method: The ability of an adenosine kinase inhibitor to affect neutrophil adherence to fibroblasts and endothelial cells was evaluated in a cell culture model. […] These incubations were carried out in the presence of fMLP-stimulated human neutrophils isolated from whole blood (1.25×10^6/mL) with or without adenosine deaminase (0.125 U/mL). At the end of the incubation, the medium was removed and the monolayers of fibroblasts or endothelial cells and adherent neutrophils were fixed by addition of formaldehyde (3.7%) and, after washing to remove non-adherent neutrophils, adherent neutrophils were stained with Weigart's hematoxylin and counted under a light microscope.

[8] = tested on: adenosine uptake, guinea pig brain slices; settings: cited from earlier work
[9] = cited from earlier work
[10] = tested on: Mycobacterium butyricum adjuvant arthritis; assay: Adjuvant arthritis in rats; format: in vivo, Lewis rats
Method: Lewis rats received a single subcutaneous tail injection of 0.75 mg Mycobacterium butyricum mixed in paraffin oil on day 0. […] Hind paw volume was measured by Mercury displacement.

[11] = mouse, in vivo; cited from earlier work
[12] = tested on: adenosine uptake, rat brain slices; settings: cited from earlier work
[13] = molecular target: T1, adenosine kinase (Bos taurus, UniProt A0AAA9RZ79); assay: Adenosine kinase inhibition in intact cells (capillary endothelial cells from bovine heart); format: cell-based; settings: 20 μM 2'-deoxycoformycin, 5 μM [3H]adenosine
T1 construct: endogenous in cells; host or cells: capillary endothelial cells from bovine heart
T1 sequence (A0AAA9RZ79 1-362): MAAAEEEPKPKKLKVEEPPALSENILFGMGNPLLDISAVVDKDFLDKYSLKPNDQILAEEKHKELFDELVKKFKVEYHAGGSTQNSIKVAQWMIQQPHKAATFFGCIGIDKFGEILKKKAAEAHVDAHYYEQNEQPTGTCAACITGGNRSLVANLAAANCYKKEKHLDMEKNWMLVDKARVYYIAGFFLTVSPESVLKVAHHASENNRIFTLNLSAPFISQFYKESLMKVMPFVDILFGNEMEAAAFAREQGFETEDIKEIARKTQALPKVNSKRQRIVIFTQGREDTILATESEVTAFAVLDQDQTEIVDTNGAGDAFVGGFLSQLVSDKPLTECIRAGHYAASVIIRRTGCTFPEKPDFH
Method: Inhibition of adenosine kinase in intact cells was determined from the amount of incorporation of radioisotope from adenosine into the adenylates (AMP, ADP and ATP) in the presence of adenosine deaminase inhibition. […] The media was then discarded and the cells were treated with 50 μl 0.4M perchloric acid, centrifuged and the supernalants neutralized with 100 μl alanine: freon (1:4).

[14] = molecular target: T2, purified pig heart adenosine kinase (Sus scrofa, UniProt A0A5G2R0F5); assay: Inhibition of adenosine kinase activity (purified pig heart enzyme); format: biochemical
T2 construct: purified pig heart adenosine kinase; from tissue; host or cells: pig heart
T2 sequence (A0A5G2R0F5 1-362): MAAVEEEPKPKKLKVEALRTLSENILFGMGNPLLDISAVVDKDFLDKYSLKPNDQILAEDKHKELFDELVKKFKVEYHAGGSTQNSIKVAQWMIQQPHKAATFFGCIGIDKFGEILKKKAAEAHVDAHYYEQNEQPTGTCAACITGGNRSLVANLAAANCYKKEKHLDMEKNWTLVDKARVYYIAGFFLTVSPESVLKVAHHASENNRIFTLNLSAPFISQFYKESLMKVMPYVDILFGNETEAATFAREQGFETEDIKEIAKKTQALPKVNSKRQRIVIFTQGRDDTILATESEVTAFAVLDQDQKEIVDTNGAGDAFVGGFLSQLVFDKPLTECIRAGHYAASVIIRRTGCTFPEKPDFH
Method: Inhibition of enzyme activity was determined using a 0.1 mL assay mixture containing 50 mM Tris-maleate, pH 7.0, 0.1% (w/v) BSA, 1 mM ATP, 1 mM MgCl2, 0.5 μM [U-^14 C]adenosine (500 mCi/mmol) and 0.1 μg of purified pig heart adenosine kinase. Different concentrations of the test compounds were incubated in the assay mixture for 20 min. at 37° C. From each reaction mixture, 20 μl portions were removed and spotted on 2 cm^2 pieces of Whatman DE81 filter paper. […] The papers were dried, and [^14 C]AMP measured by scintillation counting.

[15] = conscious animals, doses greatly in excess of that required to inhibit cardiac adenosine kinase

OC[C@H]1O[C@@H](n2cnc3c2N=CNC[C@H]3O)C[C@@H]1O [2'-deoxycoformycin]
adenosine release from rat cardiomyocytes ([1]; ADA inhibition alone): no effect on adenosine release

NC[C@H]1O[C@@H](n2cnc3c(N)ncnc32)[C@H](O)[C@@H]1O [5'-amino-5'-deoxyadenosine]
adenosine release, isolated guinea pig hearts, no ADA inhibition ([2]; absence of ADA inhibition): not apparent in the absence of ADA inhibition
increase of adenosine release, isolated guinea pig hearts ([2]; in the presence of EHNA): 15 -fold
increase in adenosine release from rat cardiomyocytes ([1]; inhibition of ADA together with adenosine kinase): 6 -fold

Cn1c(=O)c2[nH]c(-c3ccc(S(=O)(=O)O)cc3)nc2n(C)c1=O [8-p-sulphophenyltheophylline, reference compound]
effect on GP-1-515-induced protection [3]: completely inhibited the protective effect of GP-1-515; also recorded: blocking the GP-1-515-induced protection
effect on GP-1-515-induced decrease of plasma TNF-α [4]: The decrease was prevented

NC[C@H]1O[C@@H](n2cnc3c(N)ncnc32)[C@H](O)[C@@H]1O [GP-1-238]
inhibition of adenosine kinase in vivo [5]: completely inhibited adenosine kinase in vivo
effect on blood pressure, conscious animals [6, 15]: No effects were observed
effect on heart rate, conscious animals [6, 15]: No effects were observed
effect on temperature, conscious animals [6, 15]: No effects were observed
hemodynamic effects, conscious rats ([6]; i.v. infusion 0.1-5 mg/kg/min, conscious rats, in contrast to anesthetized animals): no hemodynamic effects were seen

CNc1ncnc2c1ncn2[C@@H]1O[C@H](CN)[C@@H](O)[C@H]1O [GP-1-272]
inhibition of neutrophil adhesion to endothelial cells [7]: inhibit neutrophil adhesion to endothelial cells; also recorded: dose-dependent inhibition
effect of adenosine deaminase co-treatment on inhibition of neutrophil adhesion [7]: reversed by adenosine deaminase treatment; also recorded: reversal of this inhibition

C[C@H]1O[C@@H](n2cc(I)c3c(N)ncnc32)[C@H](O)[C@@H]1O [GP-1-456, 5'-deoxy-5-iodotubercidin]
inhibition of neutrophil adhesion to endothelial cells [7]: inhibit neutrophil adhesion to endothelial cells; also recorded: dose-dependent inhibition
effect of adenosine deaminase co-treatment on inhibition of neutrophil adhesion [7]: reversed by adenosine deaminase treatment; also recorded: reversal of this inhibition
adenosine uptake, guinea pig brain slices [8]: inhibited
blood pressure and heart rate in anesthetized rats [9]: decrease blood pressure and heart rate
reduction of hind paw edema ([10]; 3 mg/kg p.o.): significant reduction of hind paw edema
total mean hind paw edema ([10]; 3 mg/kg p.o. day 1 through 19, day 19, untreated 2.55±0.20, p<0.05): 1.41 ± 0.21 mL
body temperature in mice [11]: hypothermia
flaccidity and locomotor activity in mice [11]: pronounced general flaccidity and much-reduced spontaneous locomotor activity
adenosine uptake, rat brain slices [12]: inhibited

C[C@H]1O[C@@H](n2nc(-c3ccccc3)c3c(Nc4ccccc4)ncnc32)[C@H](O)[C@@H]1O [GP-1-665]
IC50 [13]: 4.5 nM

OC[C@H]1O[C@@H](n2cc(-c3ccco3)c3c(Nc4ccccc4)ncnc32)[C@H](O)[C@@H]1O [GP-1-718]
IC50 [14]: < 10 nM
